What was measured:
[1] = system: IgM in Lyme Disease patient sera; assay: MSD-ECL assay with Biotin-BBGL-1 / Biotin-BBGL-2 coated streptavidin plates, anti-IgM detection; type: binding, human; conditions: biotinylated antigen coated at 1 ug/mL; for IgM titer, EU: NC= 189.75
Protocol: (§1) A Meso Scale Discovery Electrochemiluminescence (MSD-ECL) assay was developed using Biotin-BBGL-1 and Biotin-BBGL-2 to measure antibody titers in Lyme Disease patient samples. The assay involved first blocking MSD streptavidin gold plate with 4% BGG (bovine gamma globulin in PBS), washing the plates with PBS and the coating Biotin-BBGL-1 and Biotin-BBGL-2 at concentration of 4 ug/mL (diluted in 4% BGG) for coating for IgG side of plate and at concentration of 1 ug/mL (diluted in 4% BGG) for coating for IgM side of plate. Serum samples (diluted 1:5) were then added to each well, incubated, and washed.
(§2) Detection reagents (Sulfo tag anti-lgG Fc or anti-IgM) were then added, incubated, and washed, followed by reading the plates on a Sector Imager (Meso Scale Diagnostic, Rockville, MD USA).

[2] = system: IgG in Lyme Disease patient sera; assay: MSD-ECL assay with Biotin-BBGL-1 / Biotin-BBGL-2 coated streptavidin plates, anti-IgG Fc detection; type: binding, human; conditions: biotinylated antigen coated at 4 ug/mL; for IgG titer, EU: NC= 166.75
Protocol: as §1, §2

Borrelia burgdorferi = assay: In vitro neutralization of Borrelia burgdorferi by Day 30 serum samples from immunized mice; type: in vivo; conditions: Day 30 sera of C3H/HeJ mice, n=6 per group; dosing at day 1 (77 µg/mouse per immunization, 10 µg QS-21/mouse)
Protocol: A pilot study in mice was conducted to determine the safety and in vitro efficacy of the BBGL-1 and BBGL-2 liposome vaccines in the absence or presence of the adjuvant QS-21 (Desert King International, San Diego, CA USA). Eighty-four (42 male, 42 female) C3H/HeJ mice (The Jackson Laboratory, Bar Harbor, ME USA), at approximately 7 weeks were used in the study, which is outlined in Table 17a and 17b.
7 Group of Mice (6 male and 6 female in each group) were given either 1) adjuvant alone, 2) Immunization A, 3) Adjuvant + Immunization A, 4) Immunization B, 5) Adjuvant + Immunization B, 6) Immunization A + Immunization B, or 7) Adjuvant + Immunization A + Immunization B
Immunization A and Immunization B were administered at 77 µg/mouse doses at day 1 and Day 30. Groups receiving adjuvant received 10 µg QS-21/mouse at Day 1 and Day 30.
Whole blood was collected into serum separator tubes at baseline and days 7, 15, 30, 45, and 60. Blood was allowed to clot and centrifuged at 1500xg and 10° C. for 15 minutes. Serum was aliquoted and stored at -30° C.
Serum aliquots were evaluated after 30 days, for neutralizing antibodies against Borrelia burgdorferi, B. mayonii, B. afzelii, and B. garinii using laboratory developed assays.
In vitro neutralization of Borrelia burgdorferi from Day 30 assessed with half of the mouse serum samples (n=6 per group) are shown in FIG. 7a.

Compound | IgM titer, Fold/Baseline ([1]; patient L1 serum diluted 1:5) [Fold/Baseline] | IgM titer, EU ([1]; patient L1 serum diluted 1:5) [EU] | IgM titer, Fold/Baseline ([1]; patient L2 serum diluted 1:5) [Fold/Baseline] | IgM titer, EU ([1]; patient L2 serum diluted 1:5) [EU] | IgM titer, Fold/Baseline ([1]; patient L3 serum diluted 1:5) [Fold/Baseline] | IgM titer, EU ([1]; patient L3 serum diluted 1:5) [EU] | IgG titer, Fold/Baseline ([2]; patient L1 serum diluted 1:5) [Fold/Baseline] | IgG titer, EU ([2]; patient L1 serum diluted 1:5) [EU] | IgG titer, Fold/Baseline ([2]; patient L2 serum diluted 1:5) [Fold/Baseline] | IgG titer, EU ([2]; patient L2 serum diluted 1:5) [EU] | IgG titer, Fold/Baseline ([2]; patient L3 serum diluted 1:5) [Fold/Baseline] | IgG titer, EU ([2]; patient L3 serum diluted 1:5) [EU] | neutralization activity (Borrelia burgdorferi) [%]
CCCCCCCCCCCCCCCC(=O)OC[C@H]1O[C@@H](O[C@H]2CC[C@@]3(C)C(=CC[C@H]4[C@@H]5CC[C@H]([C@H](C)CCCC(C)C)[C@@]5(C)CC[C@@H]43)C2)[C@H](O)[C@@H](O)[C@H]1O [BBGL1, cholesteryl 6-O-palmitoyl-β-D-galactopyranoside] | 21 | 4055.50 | 2 | 390.00 | 7 | 1338.00 | 1.3 | 218.50 | 0.9 | 143.50 | 1.0 | 166.00 | –
CCCCCCCC/C=C\CCCCCCCC(=O)OC[C@H](CO[C@H]1O[C@H](CO)[C@H](O)[C@H](O)[C@H]1O)OC(=O)CCCCCCCCCCCCCCC [BBGL2, 1-oleoyl-2-palmitoyl-3-(α-D-galactosyl)-sn-glycerol] | 18 | 3458.00 | 2 | 344.50 | 6 | 1229.50 | 16 | 2720.00 | 4 | 619.50 | 1.1 | 178.00 | –
QS-21 | – | – | – | – | – | – | – | – | – | – | – | – | > 15
